From ChEMBL document CHEMBL5380800, “Discovery of Small-Molecule Autophagy Inhibitors by Disrupting the Protein-Protein Interactions Involving Autophagy-Related 5” (J Med Chem, 2023)
pIC50: −log10 of the molar value. The source made the active and inactive calls. The calls are words filed in the database; no cut-off is given here.

Key:
COS-7 [1] = assay: Inhibition of autophagy in African green monkey COS-7 cells at 20 uM by flow cytometry analysis relative to control; assay type: functional; settings: Chlorocebus aethiops
THP-1 = assay: Downregulation of LC3-II protein level in human THP-1 cells at 5 to 40 uM incubated for 6 hrs in presence of rapamycin/chloroquine by Western blot analysis; assay type: functional, cell-based; settings: dose 5-40 µM
COS-7 [2] = assay: Downregulation of LC3-II protein level in African green monkey COS-7 cells at 1.25 to 20 uM incubated for 6 hrs by Western blot analysis; assay type: functional, cell-based; settings: Chlorocebus aethiops, dose 1.25-20 µM
COS-7 [3] = assay: Inhibition of autophagy in African green monkey COS-7 cells assessed as effect on LC3 level by flow cytometry analysis; assay type: toxicity, cell-based; settings: chlorocebus aethiops, cos-7, 40 µM
[4] = Inhibition of ATG5-TECAIR (unknown origin) protein protein interaction expressed in Escherichia coli BL21 (DE3) by HTRF method; set-up: species or system Homo sapiens; settings: read-out: IC50
U-937 = assay: Downregulation of LC3-II protein level in human U-937 cells at 5 to 40 uM incubated for 6 hrs in presence of rapamycin/chloroquine by Western blot analysis; assay type: functional, cell-based; settings: dose 5-40 µM
[5] = Inhibition of ATG5-ATG16L1 (unknown origin) protein protein interaction expressed in Escherichia coli BL21 (DE3) by HTRF method; set-up: species or system Homo sapiens; settings: read-out: IC50

O=C(O)c1ccc(N2C(=O)/C(=C/c3ccc(-c4ccc([N+](=O)[O-])cc4)o3)C=C2c2ccccc2)cc1
inhibition at 20 µM (COS-7 [1]): 7.16%
Activity (THP-1): Active
Activity (COS-7 [2]): Active
inhibition (INH) (COS-7 [3]): Dose-Dependent Effect
pIC50 [4]: 5.77
Activity (U-937): Active
pIC50 [5]: 5.96
